For this test, the system named is BDF1 mice, B16 melanoma ip, median survival T/C. Put plainly: NCI In Vivo Anticancer Drug Screen. Data for tumor model B16 Melanoma (intraperitoneal) in B6D2F1 (BDF1) mice. To be noted: endpoint: median survival time, higher = longer survival. In outline: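 In this screen, activity was judged from survival or tumor size in treated versus vehicle-treated tumor-bearing mice, reported as T/C.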

Setting [1] is: dose: 100.0 mg/kg/injection, schedule: Q01DX009 (ip), vehicle: Klucel (hydroxypropylcellulose) (HPC).
Setting [2] is: dose: 200.0 mg/kg/injection, schedule: Q01DX009 (ip), vehicle: Klucel (hydroxypropylcellulose) (HPC).
The mark [3] stands for this setting: dose: 6.25 mg/kg/injection, schedule: Q01DX009 (ip), vehicle: Klucel (hydroxypropylcellulose) (HPC).
The mark [4] stands for this setting: dose: 12.5 mg/kg/injection, schedule: Q01DX009 (ip), vehicle: Klucel (hydroxypropylcellulose) (HPC).
[5] abbreviates: dose: 50.0 mg/kg/injection, schedule: Q01DX009 (ip), vehicle: Klucel (hydroxypropylcellulose) (HPC).
Where [6] appears, read: dose: 100.0 mg/kg/injection, schedule: Q01DX009 (ip), vehicle: saline with Tween-80.
The mark [7] stands for this setting: dose: 200.0 mg/kg/injection, schedule: Q01DX009 (ip), vehicle: saline with Tween-80.
[8] abbreviates: dose: 12.5 mg/kg/injection, schedule: Q01DX009 (ip), vehicle: saline with Tween-80.
[9] abbreviates: dose: 25.0 mg/kg/injection, schedule: Q01DX009 (ip), vehicle: saline with Tween-80.
Where [10] appears, read: dose: 50.0 mg/kg/injection, schedule: Q01DX009 (ip), vehicle: saline with Tween-80.
The mark [11] stands for this setting: dose: 6.25 mg/kg/injection, schedule: Q01DX009 (ip), vehicle: saline with Tween-80.
The mark [12] stands for this setting: dose: 100.0 mg/kg/injection, schedule: Q04DX003 (ip), vehicle: Klucel (hydroxypropylcellulose) (HPC).
Setting [13] is: dose: 200.0 mg/kg/injection, schedule: Q04DX003 (ip), vehicle: Klucel (hydroxypropylcellulose) (HPC).
Where [14] appears, read: dose: 400.0 mg/kg/injection, schedule: Q04DX003 (ip), vehicle: Klucel (hydroxypropylcellulose) (HPC).

Several values for one entry are separate records, joined by “and”; a condition that tells them apart may be missing. Equal entries are not always repeated. Inconclusive results and toxic doses are left out.

`Cc1cc(C)c(NC(=O)Nc2cccc(Cl)c2)c(C)c1`: the T/C by setting is: under setting [1], 88 % of control; under setting [2], 94 % of control.

Take `CCOc1c(Br)cc(Br)cc1C=C(C#N)C#N`: the T/C by setting is: (dose: 12.5 mg/kg/injection, schedule: Q01DX009 (ip), vehicle: other) 103 % of control; (dose: 25.0 mg/kg/injection, schedule: Q01DX009 (ip), vehicle: other) 98 % of control; (dose: 50.0 mg/kg/injection, schedule: Q01DX009 (ip), vehicle: other) 109 % of control.

With `COc1c(CNC(=O)CCl)cc2[nH]c(C)cc2c1CNC(=O)CCl`, the T/C is, setting by setting: under setting [3], 101 % of control; under setting [4], 106 % of control; (dose: 25.0 mg/kg/injection, schedule: Q01DX009 (ip), vehicle: Klucel (hydroxypropylcellulose) (HPC)) 103 % of control; under setting [5], 104 % of control; under setting [1], 108 % of control; under setting [2], 97 % of control.

With `CN(C)N=Nc1c(Cl)cc(Cl)cc1C(N)=O`, the T/C by setting is: under setting [6], 119 % of control; under setting [7], 115 % of control.

`CCCCC(=O)NN`: the T/C under setting [8] is 102 % of control, the T/C under setting [9] is 96 % of control and the T/C under setting [10] was 100 % of control.

Consider `O=C(OCCOCCOCCOC(=O)c1ccccc1)c1ccccc1`, for which, under “dose: 400.0 mg/kg/injection, schedule: Q01DX009 (ip), vehicle: Klucel (hydroxypropylcellulose) (HPC)”, the T/C was 121 % of control.

`NC(Cn1cc(N(CCCl)CCCl)c(=O)[nH]c1=O)C(=O)O` (configuration not stated): the T/C runs as follows: (dose: 6.0 mg/kg/injection, schedule: Q01DX009 (ip), vehicle: saline) 104 % of control; (dose: 12.0 mg/kg/injection, schedule: Q01DX009 (ip), vehicle: saline) 115 % of control.

On to `O=C1C2CC=CCC2C(=O)N1SC(Cl)(Cl)Cl` (configuration not stated), for which the T/C was 98 % of control (dose: 0.2 mg/kg/injection, schedule: Q01DX009 (ip), vehicle: saline with Tween-80); 100 % of control (dose: 0.4 mg/kg/injection, schedule: Q01DX009 (ip), vehicle: saline with Tween-80); 97 % of control (dose: 0.8 mg/kg/injection, schedule: Q01DX009 (ip), vehicle: saline with Tween-80); 88 % of control (dose: 3.13 mg/kg/injection, schedule: Q01DX009 (ip), vehicle: saline with Tween-80).

As for `Cc1ccc(NC(=O)Nc2ccc(C)c(NC(=O)Nc3ccc(C)c(Cl)c3)c2)cc1Cl`, the T/C was 99 % of control under setting [11], 90 % of control under setting [8] and 99 % of control under setting [9].

With `O=C1c2ccccc2C(=O)c2c(NCCSCCO)ccc(NCCSCCO)c21`, the T/C reads like this: (dose: 16.0 mg/kg/injection, schedule: Q01DX009 (ip), vehicle: Klucel (hydroxypropylcellulose) (HPC)) 94 % of control; (dose: 32.0 mg/kg/injection, schedule: Q01DX009 (ip), vehicle: Klucel (hydroxypropylcellulose) (HPC)) 103 % of control; (dose: 64.0 mg/kg/injection, schedule: Q01DX009 (ip), vehicle: Klucel (hydroxypropylcellulose) (HPC)) 96 % of control; (dose: 128.0 mg/kg/injection, schedule: Q01DX009 (ip), vehicle: Klucel (hydroxypropylcellulose) (HPC)) 88 % of control; (dose: 256.0 mg/kg/injection, schedule: Q01DX009 (ip), vehicle: Klucel (hydroxypropylcellulose) (HPC)) 87 % of control.

Consider `CCOC(=O)/C(Cc1cc[n+]([O-])c2ccccc12)=N/O`, for which the T/C under setting [12] is 88 % of control, the T/C under setting [13] was 97 % of control and the T/C under setting [14] was 88 % of control.

As to `O=NN(CCF)C(=O)NCCO`, the T/C was 115 % of control (dose: 1.88 mg/kg/injection, schedule: Q01DX001 (ip), vehicle: saline); 114 % of control (dose: 3.75 mg/kg/injection, schedule: Q01DX001 (ip), vehicle: saline); 172 % of control (dose: 15.0 mg/kg/injection, schedule: Q01DX001 (ip), vehicle: saline); 231 % of control (dose: 30.0 mg/kg/injection, schedule: Q01DX001 (ip), vehicle: saline); 212 % of control (dose: 60.0 mg/kg/injection, schedule: Q01DX001 (ip), vehicle: saline).

For `O=C1NC(c2ccccc2)N=C2Oc3ccccc3C=C12` (configuration not stated), the T/C was 107 % of control (dose: 1.56 mg/kg/injection, schedule: Q01DX009 (ip), vehicle: saline with Tween-80); 109 % of control and 113 % of control (dose: 3.12 mg/kg/injection, schedule: Q01DX009 (ip), vehicle: saline with Tween-80); 108 % of control and 117 % of control under setting [11]; 117 % of control under setting [8]; 117 % of control under setting [9].

`c1ccc(OCCC[P+](c2ccccc2)(c2ccccc2)c2ccccc2)cc1`: the T/C by setting is: (dose: 5.0 mg/kg/injection, schedule: Q01DX009 (ip), vehicle: saline) 107 % of control; (dose: 10.0 mg/kg/injection, schedule: Q01DX009 (ip), vehicle: saline) 105 % of control; (dose: 20.0 mg/kg/injection, schedule: Q01DX009 (ip), vehicle: saline) 95 % of control; (dose: 40.0 mg/kg/injection, schedule: Q01DX009 (ip), vehicle: saline) 97 % of control.

As to `Cc1cccc(NS(=O)(=O)c2ccc(Cl)cc2)c1C`, the T/C reads like this: (dose: 75.0 mg/kg/injection, schedule: Q01DX009 (ip), vehicle: Klucel (hydroxypropylcellulose) (HPC)) 91 % of control; (dose: 150.0 mg/kg/injection, schedule: Q01DX009 (ip), vehicle: Klucel (hydroxypropylcellulose) (HPC)) 95 % of control; (dose: 300.0 mg/kg/injection, schedule: Q01DX009 (ip), vehicle: Klucel (hydroxypropylcellulose) (HPC)) 90 % of control.

On to `O=C1NC(=O)C(=Cc2cc3c(cc2Br)OCO3)C(=O)N1`, for which the T/C was 97 % of control under setting [8], 94 % of control under setting [9] and 94 % of control under setting [10].

On to `CN(C)CCOc1ccccn1`, for which the T/C runs as follows: under setting [6], 94 % of control; under setting [7], 97 % of control.

As for `O=S(=O)(Nc1ccc(-c2ccccc2)cc1)c1ccccc1`, the T/C by setting is: under setting [10], 100 % of control; under setting [6], 91 % of control; under setting [7], 89 % of control.

As for `COc1cc2c(ccc3c4cc(OC)c(OC)cc4c[n+](C)c23)cc1O`, the T/C under setting [10] was 108 % of control, the T/C under setting [6] is 97 % of control and the T/C under setting [7] was 100 % of control.

In the case of `COc1cccc(NC(=O)CCC(=O)O)c1`, the T/C (dose: 1.56 mg/kg/injection, schedule: Q01DX009 (ip), vehicle: Klucel (hydroxypropylcellulose) (HPC)) was 89 % of control; the T/C (dose: 3.12 mg/kg/injection, schedule: Q01DX009 (ip), vehicle: Klucel (hydroxypropylcellulose) (HPC)) is 102 % of control; the T/C under setting [3] was 92 % of control; the T/C under setting [4] was 94 % of control.

Consider `CNc1ccc(S(=O)(=O)O)cc1`, for which the T/C under setting [12] was 100 % of control, the T/C under setting [13] was 100 % of control and the T/C under setting [14] is 86 % of control.

Regarding `Cc1ccc(N=NN(C)C)cc1`, the T/C runs as follows: under setting [8], 113 % of control; under setting [9], 115 % of control; under setting [10], 106 % of control.

For `Cc1cn(C2CC3[O][Sn]([c]4ccccc4)([c]4ccccc4)[O]CC3O2)c(=O)[nH]c1=O` (configuration not stated), the T/C was 91 % of control (dose: 6.25 mg/kg/injection, schedule: Q01DX009 (ip), vehicle: saline); 93 % of control and 117 % of control (dose: 12.5 mg/kg/injection, schedule: Q01DX009 (ip), vehicle: saline); 94 % of control and 124 % of control (dose: 25.0 mg/kg/injection, schedule: Q01DX009 (ip), vehicle: saline); 98 % of control (dose: 50.0 mg/kg/injection, schedule: Q01DX009 (ip), vehicle: saline).

Consider `O=C(O)CC(NCc1ccccc1)C(=O)O` (configuration not stated), for which the T/C by setting is: under setting [6], 97 % of control; under setting [7], 102 % of control; (dose: 400.0 mg/kg/injection, schedule: Q01DX009 (ip), vehicle: saline with Tween-80) 100 % of control.

Take `O=C(O)CNc1ccccc1C(=O)O`: the T/C reads like this: under setting [5], 108 % of control; under setting [1], 94 % of control; under setting [2], 91 % of control.

The values are drawn from PubChem BioAssay AID192 (DTP/NCI, 2004).
